Experimental data published in publication PMC6572064, “Discovery of 2-(1-(3-(4-Chloroxyphenyl)-3-oxo- propyl)pyrrolidine-3-yl)-1H-benzo[d]imidazole-4-carboxamide: A Potent Poly(ADP-ribose) Polymerase (PARP) Inhibitor for Treatment of Cancer” (Molecules, 2019).
pIC50: −log10 of the molar value. Several values for one entry are separate records, joined by “and”; a condition that tells them apart may be missing. Identical values can stand only once. Like-named read-outs stand apart in the source and are kept apart here. Values belong to the molecule of their own block, whether it stands above or below them.

How the values were obtained:
[1] = system: CAPAN-1 (a BRCA-2-mutated pancreatic cancer cell line); assay: Cell proliferation assay, three-day, CellTiter-Glo, CAPAN-1; type: cell-based; conditions: for inhibition at 0.00508 µM: CAPAN-1, Conc. 0.00508 uM; for inhibition at 0.0152 µM: CAPAN-1, Conc. 0.0152 uM; for inhibition at 0.0457 µM: CAPAN-1, Conc. 0.0457 uM; for inhibition at […]: CAPAN-1, Conc. 0.14 uM; for inhibition at 0.41 µM: CAPAN-1, Conc. 0.41 uM; for inhibition at 1.23 µM: CAPAN-1, Conc. 1.23 uM; for inhibition at 3.7 µM: CAPAN-1, Conc. 3.70 uM; for inhibition at 11.11 µM: CAPAN-1, Conc. 11.11 uM; for inhibition at 33.33 µM: CAPAN-1, Conc. 33.33 uM; for inhibition at 100 µM: CAPAN-1, Conc. 100.00 uM
Experimental: (§1) A three-day assay was conducted. A cell suspension was prepared. Cell density was counted by an automated cell counter and then diluted to the required density, according to seeding density. 50 μL cells were seeded into 384-well plate in growth medium according to the plate map. The cells were incubated at 37 °C, 5% CO2 overnight.
(§2) 200× compound solution in DMSO was prepared and diluted with growth medium to 26× final concentration by addition of 26 μL 200× compounds to 174 μL growth medium. Then 2 μL of diluted compound solution was added to cells and the cell was incubated at 37 °C, 5% CO2 for 72 h.
(§3) The assay plate was equilibrated to room temperature prior to measurement. 15 μL of CellTiter-Glo Reagent was added into each well and the contents were mixed for 2 min on an orbital shaker to induce cell lysis. The cells were incubated at room temperature for 60 min to stabilize luminescent signal. Luminescence was recorded on the Envision system.

[2] = system: MDA-MB-436 (a BRCA-1-mutated breast cancer cell line); assay: Cell proliferation assay, three-day, CellTiter-Glo, MDA-MB-436; type: cell-based; conditions: for inhibition at 0.00508 µM: MDA-MB-436, MDA-MB-436, Conc. 0.00508 uM; for inhibition at 0.0152 µM: MDA-MB-436, MDA-MB-436, Conc. 0.0152 uM; for inhibition at 0.0457 µM: MDA-MB-436, MDA-MB-436, Conc. 0.0457 uM; for inhibition at 0.41 µM: MDA-MB-436, MDA-MB-436, Conc. 0.41 uM; for inhibition at 1.23 µM: MDA-MB-436, MDA-MB-436, Conc. 1.23 uM; for inhibition at 3.7 µM: MDA-MB-436, MDA-MB-436, Conc. 3.70 uM; for inhibition at 11.11 µM: MDA-MB-436, MDA-MB-436, Conc. 11.11 uM; for inhibition at 33.33 µM: MDA-MB-436, MDA-MB-436, Conc. 33.33 uM; for inhibition at 100 µM: MDA-MB-436, MDA-MB-436, Conc. 100.00 uM
Experimental: as §1, §2, §3

[3] = CAPAN-1, curve fit of Inh %, plate 1
[4] = Homo sapiens, replicate 1, read-out: Inh % 1
[5] = Homo sapiens, replicate 2, read-out: Inh % 2

SMILES: CN[C@@H]1C[C@H]2O[C@@](C)([C@@H]1OC)n1c3ccccc3c3c4c(c5c6ccccc6n2c5c31)C(=O)NC4 [STS, reference compound]
- pIC50 ([1]; CAPAN-1, 72 h, supplement Summary sheet, read-out: IC50): 7.19
- Bottom [1, 3]: 8.442 and 8.44
- HillSlope [1, 3]: 0.6137 and 0.61
- Top [1, 3]: 105.1
- pIC50 ([1]; CAPAN-1, curve fit, plate 1, read-out: IC50): 7.19

- pIC50 ([2]; Homo sapiens, MDA-MB-436, 72 h, CellTiter-Glo, read-out: MDA-MB-436 IC50): 4.52
- pIC50 ([2]; Homo sapiens, MDA-MB-436, 72 h, supplement Summary sheet, read-out: IC50): 4.52
- IC50 ([2]; Homo sapiens, MDA-MB-436, curve-fit parameter list, concentrations in uM, read-out: IC50): 30.2 µM
- CAPAN-1 IC50 (μM) ([1]; 72 h, CellTiter-Glo): low potency
- pIC50 ([1]; Homo sapiens, CAPAN-1, 72 h, CellTiter-Glo, read-out: CAPAN-1 IC50): < 4.00
SMILES: O=C(c1cc(Cc2n[nH]c(=O)c3ccccc23)ccc1F)N1CCN(C(=O)C2CC2)CC1 [pc2, Olaparib, reference compound]
- inhibition at 0.00508 µM [2, 4]: 4.1%
- inhibition at 0.00508 µM [2, 5]: -2.3%
- inhibition at 0.0152 µM [2, 4]: 1.7%
- inhibition at 0.0152 µM [2, 5]: -1.2%
- inhibition at 0.0457 µM [2, 4]: -5.7%
- inhibition at 0.0457 µM [2, 5]: -2.8%
- inhibition at 0.41 µM [2, 4]: 0.181%
- inhibition at 0.41 µM [2, 5]: 5.7%
- inhibition at 1.23 µM [2, 4]: 4%
- inhibition at 1.23 µM [2, 5]: 2%
- inhibition at 3.7 µM [2, 4]: 12.4%
- inhibition at 3.7 µM [2, 5]: 13.5%
- inhibition at 11.11 µM [2, 4]: 23.3%
- inhibition at 11.11 µM [2, 5]: 24.2%
- inhibition at 33.33 µM [2, 4]: 50.1%
- inhibition at 33.33 µM [2, 5]: 43.1%
- inhibition at 100 µM [2, 4]: 92.4%
- inhibition at 100 µM [2, 5]: 90.9%
- LogIC50 ([2]; MDA-MB-436, curve-fit parameter list, Log (uM)): 1.481
- LogIC50 ([1]; CAPAN-1, curve-fit output, concentration axis Log (uM)): 2.033
- inhibition at 0.00508 µM [1, 4]: 1.8%
- inhibition at 0.00508 µM [1, 5]: -2%
- inhibition at 0.0152 µM [1, 4]: 5.2%
- inhibition at 0.0152 µM [1, 5]: -2.3%
- inhibition at 0.0457 µM [1, 4]: -6.9%
- inhibition at 0.0457 µM [1, 5]: 0.662%
- inhibition at […] [1, 4]: 0.107%
- inhibition at […] [1, 5]: 6.2%
- inhibition at 0.41 µM [1, 4]: 4.3%
- inhibition at 0.41 µM [1, 5]: 7.9%
- inhibition at 1.23 µM [1, 4]: 15.1%
- inhibition at 1.23 µM [1, 5]: 0.6%
- inhibition at 3.7 µM [1, 4]: 21.3%
- inhibition at 3.7 µM [1, 5]: 11.6%
- inhibition at 11.11 µM [1, 4]: 18.6%
- inhibition at 11.11 µM [1, 5]: 23.5%
- inhibition at 33.33 µM [1, 4]: 38.5%
- inhibition at 33.33 µM [1, 5]: 34.2%
- inhibition at 100 µM [1, 4]: 48.2%
- inhibition at 100 µM [1, 5]: 47.5%
